Data from US6887889B2 (Pharmacopeia Drug Discovery, Inc., priority 2001, dated 2005).

Target: T1, hMCHR (Homo sapiens, UniProt Q99705)
T1 construct: host or cells: CHO (Chinese hamster ovary) cells, membranes
Assay: MCH Assay PCOP Protocol: [125I]-MCH binding to hMCHR-CHO membranes, WGA-SPA beads
Details: hMCHR-CHO overexpressing membranes, 0.5 nM [125I]-MCH, 2 hours incubation
Procedure: A reaction mixture of 10 μg hMCHR-CHO overexpressing membranes (from Receptor Biology, Inc., Beltville, Md., or internally produced) and 100 μg/well WGA-SPA beads (from Amersham Pharmacia Biotech, Inc., Piscataway, N.J.)/100 μL was prepared in MCHR assay buffer (25 mM HEPES, pH 7.4, 10 mM NaCl, 10 mM MgCl2, 5 mM MnCl2, 0.1%BSA). […] The assay plates were shaken for 5 minutes on a plate shaker, then incubated for 2 hours before cpm/well were determined in a Microbeta Trilux counter (from Perkin Elmer Wallac, Inc., Gaithersburg, Md.).

T1 sequence (Q99705 whole entry): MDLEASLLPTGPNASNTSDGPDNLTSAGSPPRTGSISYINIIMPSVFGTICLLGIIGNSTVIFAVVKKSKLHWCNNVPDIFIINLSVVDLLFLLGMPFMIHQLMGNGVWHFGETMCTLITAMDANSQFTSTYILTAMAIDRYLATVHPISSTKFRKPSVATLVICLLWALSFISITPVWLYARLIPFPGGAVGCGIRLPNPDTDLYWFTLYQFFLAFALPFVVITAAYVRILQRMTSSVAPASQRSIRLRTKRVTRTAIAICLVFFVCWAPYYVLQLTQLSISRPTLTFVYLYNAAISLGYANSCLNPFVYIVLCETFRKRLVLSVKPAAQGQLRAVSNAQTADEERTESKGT

Molecule	Ki
CC(=O)Nc1cccc(-c2ccc(C3(CNC(=O)Nc4cc(Cl)cc(Cl)c4)CCN(C4CCOCC4)CC3)cc2)c1 [Example 110]	11 to 100 nM
CCCN1CCC(CNC(=O)Nc2ccc(Cl)c(C(F)(F)F)c2)(c2ccc(-c3cccc(C#N)c3)cc2)CC1 [Example 71]	0.2 to 10 nM
O=C(NCC1(c2ccc(-c3cccc(Cl)c3)cc2)CCN(CC2CC2)CC1)Nc1ccc(Cl)cc1C(F)(F)F [Example 48]	101 to 5500 nM
CCCN1CCC(CNC(=O)Nc2ccc(F)c(C(F)(F)F)c2)(c2ccc(-c3cccc(C#N)c3)cc2)CC1 [Example 103]	0.2 to 10 nM
COCCN1CCC(CNC(=O)Nc2ccc(F)c(Cl)c2)(c2ccc(-c3cccc(C#N)c3)cc2)CC1 [Example 90]	0.2 to 10 nM
CN1CCC(CNC(=O)Nc2cc(C(F)(F)F)ccc2Cl)(c2ccc(-c3cccc(C#N)c3)cc2)CC1 [Example 69]	11 to 100 nM
CCCN1CCC(CNC(=O)Nc2cc(Cl)cc(Cl)c2)(c2ccc(-c3cccc(Cl)c3)cc2)CC1 [Example 74]	0.2 to 10 nM
O=C(NCC1(c2ccc(-c3cccc(Cl)c3)cc2)CCN(C2CCCCC2)CC1)Nc1cc(Cl)cc(Cl)c1 [Example 120]	0.2 to 10 nM
O=C(Nc1cc(Cl)cc(Cl)c1)N1CCC(CN(CC2CC2)CC2CC2)(c2ccc(-c3cccc(Cl)c3)cc2)CC1 [Example 126]	101 to 5500 nM
COCCN1CCC2(CC1)CN(C(=O)Nc1ccc(F)c(Cl)c1)c1ccc(-c3cccc(C#N)c3)cc12 [Example 86]	101 to 5500 nM
CCN1CCC(CNC(=O)Nc2cc(Cl)cc(Cl)c2)(c2ccc(-c3cccc(OC(F)(F)F)c3)cc2)CC1 [Example 123]	11 to 100 nM
N#Cc1cccc(-c2ccc(C3(CNC(=O)Cc4cc(F)cc(F)c4)CCN(CC4CC4)CC3)cc2)c1 [Example 10, N-[4-(3′-Cyano-biphenyl-4-yl)-1-cyclopropylmethyl-piperidin-4-ylmethyl]-2-(3.5-difluoro-phenyl)-acetamide]	101 to 5500 nM
COCCN1CCC(CNC(=O)Nc2ccc(F)c(F)c2)(c2ccc(-c3cccc(C#N)c3)cc2)CC1 [Example 91]	0.2 to 10 nM
COCCN1CCC(CN(C)C(=O)Nc2cc(Cl)cc(Cl)c2)(c2ccc(-c3cccc(C#N)c3)cc2)CC1 [Example 88]	0.2 to 10 nM
CN1CCC(CNC(=O)Nc2ccc(Cl)c(C(F)(F)F)c2)(c2ccc(-c3cccc(Cl)c3)cc2)CC1 [Example 51]	0.2 to 10 nM
O=C(NCC1(c2ccc(-c3cccc(Cl)c3)cc2)CCN(C2CCCC2)CC1)Nc1cc(Cl)cc(Cl)c1 [Example 77]	0.2 to 10 nM
CCCNCC1(c2ccc(-c3cccc(C#N)c3)cc2)CCN(C(=O)Nc2cc(Cl)cc(Cl)c2)CC1 [Example 134]	11 to 100 nM
Cc1ccc(C2(CNC(=O)Nc3cc(Cl)cc(Cl)c3)CCN(C3CCCC3)CC2)cc1 [Example 26]	101 to 5500 nM
CCCN1CCC(CNC(=O)Nc2ccc(Cl)cc2C(F)(F)F)(c2ccc(-c3cccc(C#N)c3)cc2)CC1 [Example 47]	11 to 100 nM
CCCN1CCC(CNC(=O)Nc2cc(F)cc(F)c2)(c2ccc(-c3cccc(C#N)c3)cc2)CC1 [Example 102]	0.2 to 10 nM
COCCN1CCC(CNC(=O)Nc2ccc(Cl)c(C(F)(F)F)c2)(c2ccc(-c3cccc(C#N)c3)cc2)CC1 [Example 94]	0.2 to 10 nM
N#Cc1cccc(-c2ccc(C3(CNC(=O)Nc4ccc(Cl)cc4C(F)(F)F)CCN(CC4CC4)CC3)cc2)c1 [Example 60]	101 to 5500 nM
N#Cc1cccc(-c2ccc(C3(CNC(=O)Nc4cc(C(F)(F)F)ccc4Cl)CCN(CC4CC4)CC3)cc2)c1 [Example 68]	11 to 100 nM
CCCN1CCC(CNC(=O)Nc2cc(C(F)(F)F)ccc2Cl)(c2ccc(-c3cccc(Cl)c3)cc2)CC1 [Example 58]	101 to 5500 nM

Molecule	Ki
CN1CCC2(CC1)CN(C(=O)Nc1ccc(F)c(Cl)c1)c1cccc(-c3cccc(C#N)c3)c12 [Example 75]	101 to 5500 nM
COCCN1CCC(CNCc2cc(Cl)cc(Cl)c2)(c2ccc(-c3cccc(C#N)c3)cc2)CC1 [Example 127]	101 to 5500 nM
O=C(NCC1(c2ccc(-c3cccc(Cl)c3)cc2)CCN(C2CCOCC2)CC1)Nc1cc(Cl)cc(Cl)c1 [Example 114]	101 to 5500 nM
COc1ccc(-c2ccc(C3(CNC(=O)Nc4cc(Cl)cc(Cl)c4)CCN(C)CC3)cc2)cn1 [Example 44]	11 to 100 nM
N#Cc1cccc(-c2ccc(C3(CNC(=O)Nc4ccc5c(c4)OCO5)CCN(CC4CC4)CC3)cc2)c1 [Example 98]	11 to 100 nM
CCCN1CCC(CNC(=O)Nc2ccc(Cl)c(C(F)(F)F)c2)(c2ccc(-c3cccc(Cl)c3)cc2)CC1 [Example 64]	11 to 100 nM
CN1CCC(CNC(=O)Nc2cc(Cl)cc(Cl)c2)(c2ccc(-c3ccc4[nH]ccc4c3)cc2)CC1 [Example 78]	101 to 5500 nM
CCCN(CCC)CC1(c2ccc(-c3cccc(C#N)c3)cc2)CCN(C(=O)Nc2cc(Cl)cc(Cl)c2)CC1 [Example 133]	101 to 5500 nM
COCCN1CCC(CNC(=O)Nc2cc(Cl)cc(Cl)c2)(c2ccc(-c3ccc4c(c3)OCO4)cc2)CC1 [Example 33]	11 to 100 nM
CCCN1CCC(CNC(=O)Nc2cc(C(F)(F)F)ccc2Cl)(c2ccc(-c3cccc(C#N)c3)cc2)CC1 [Example 63]	11 to 100 nM
3-Chloro-N-[4-(3′-cyano-biphenyl-4-yl)-1-cyclopropylmethyl-piperidin-4-ylmethyl]-4-fluoro-benzenesulfonamide [Example 11]	101 to 5500 nM
CC(C)N1CCC(CNC(=O)Nc2cc(Cl)cc(Cl)c2)(c2ccc(-c3cccc(Cl)c3)cc2)CC1 [Example 83]	0.2 to 10 nM
O=C(NCC1(c2ccc(-c3cccc(Cl)c3)cc2)CCN(CC2CC2)CC1)Nc1cc(C(F)(F)F)ccc1Cl [Example 73]	101 to 5500 nM
CCCN1CCC(CNC(=O)Nc2ccc(F)c(Cl)c2)(c2ccc(-c3cccc(C#N)c3)cc2)CC1 [Example 65]	0.2 to 10 nM
CN1CCC(C(=O)NCc2cc(Cl)cc(Cl)c2)(c2ccc(-c3cccc(C#N)c3)cc2)CC1 [Example 16, 4-(3′-Cyano-biphenyl-4-yl)-1-methyl-piperidine-4-carboxylic acid 3,5-dichloro-benzylamide]	101 to 5500 nM
CN1CCC(CN(C)C(=O)Nc2cc(Cl)cc(Cl)c2)(c2ccc(-c3cccc(C#N)c3)cc2)CC1 [Example 38]	0.2 to 10 nM
O=C(NCC1(c2ccc(-c3ccc4c(c3)OCO4)cc2)CCN(C2CCCC2)CC1)Nc1cc(Cl)cc(Cl)c1 [Example 81]	0.2 to 10 nM
CC(C)COC(=O)NCC1(c2ccc(-c3cccc(C#N)c3)cc2)CCN(CC2CC2)CC1 [Example 12, [4-(3′-Cyano-biphenyl-4-yl)-1-cyclopropylmethyl-piperidin-4-ylmethyl]-carbamic acid isobutyl ester]	101 to 5500 nM
CN(C)S(=O)(=O)N1CCC(CNC(=O)Nc2cc(Cl)cc(Cl)c2)(c2ccc(-c3cccc(C#N)c3)cc2)CC1 [Example 31]	11 to 100 nM
CN1CCC(C(=O)Nc2cc(Cl)cc(Cl)c2)(c2ccc(-c3cccc(C#N)c3)cc2)CC1 [Example 15, 4-(3′-Cyano-biphenyl-4-yl)-1-methyl-piperidine-4-carboxylic acid (3.5-dichloro-phenyl)-amide]	101 to 5500 nM
CN1CCC(CNC(=O)Nc2ccc(Cl)cc2C(F)(F)F)(c2ccc(-c3cccc(C#N)c3)cc2)CC1 [Example 67]	101 to 5500 nM
CCCCN1CCC(CNC(=O)Nc2cc(Cl)cc(Cl)c2)(c2ccc(-c3cccc(Cl)c3)cc2)CC1 [Example 113]	11 to 100 nM
CCCN1CCC2(CC1)CN(C(=O)Nc1ccc(Cl)c(Cl)c1)c1ccc(-c3cccc(C#N)c3)cc12 [Example 45]	101 to 5500 nM
